# Test system: chronic fatigue syndrome
# Assay: Experiment 1: oral treatment of a subject diagnosed with chronic fatigue syndrome
# Type: in vivo, human
# Details: one subject, CFS by CDC criteria; 100 mg capsules orally twice daily for two months
# Method: One subject, recently diagnosed with chronic fatigue syndrome by CDC criteria, orally consumed 100 mg capsules of Δ5-androstene-3-acetyl-7,17-dione twice daily for two months. […] As testament to their improvement, they reported to their physician that they had just finished building a 20′×30′ addition to their bam, something, they said, they would not have and could not have done prior to taking Δ5-androstene-3-acetyl-7,17-dione.
smiles,measurement,value
"CC(=O)O[C@H]1CC[C@@]2(C)C(=CC(=O)[C@@H]3[C@@H]2CC[C@]2(C)C(=O)CC[C@@H]32)C1 [Δ5-androstene-3-acetyl-7,17-dione]",improvement in their symptoms of fatigue (self-reported),80%
same,mental alertness (self-reported),felt more mentally alert

# — patent US7553829B2, “Treatment of chronic fatigue syndrome and fibromyalgia syndrome” (Humanetics Corporation, priority 2000, dated 2009)
